Biological target: T1, human neuropeptide Y5 receptor (Homo sapiens, UniProt Q15761)
T1 construct: expressed in transfected cells
T1 sequence (Q15761 1-445): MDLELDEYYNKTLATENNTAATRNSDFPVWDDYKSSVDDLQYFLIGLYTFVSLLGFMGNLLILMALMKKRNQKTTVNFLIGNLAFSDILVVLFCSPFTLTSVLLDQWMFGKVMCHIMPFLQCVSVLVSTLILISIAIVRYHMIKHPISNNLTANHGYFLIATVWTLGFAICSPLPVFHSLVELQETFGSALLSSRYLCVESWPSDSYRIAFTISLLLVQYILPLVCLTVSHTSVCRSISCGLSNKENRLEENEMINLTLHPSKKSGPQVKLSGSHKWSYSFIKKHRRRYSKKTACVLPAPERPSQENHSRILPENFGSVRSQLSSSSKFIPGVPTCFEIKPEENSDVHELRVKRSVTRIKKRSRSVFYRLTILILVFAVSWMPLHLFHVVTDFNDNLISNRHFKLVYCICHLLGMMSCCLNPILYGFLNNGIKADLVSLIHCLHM
Test: NPY5 HTS Centrifugation Assay: competition with 125I-PYY for binding to NPY5-transfected HEK293 cell membranes
Conditions: 80 pM 125I-PYY, 1 hr room temperature, read-out: % Inh @ 3 uM (% Inhibition of ^125 I-PYY Binding)
Protocol: The compounds described in this invention were evaluated for binding to the human neuropeptide Y5 receptor.
The human NPY5 receptor cDNA (Genbank Accession number U66275) was inserted into the vector pClneo (Invitrogen) and transfected into human embryonic kidney cells (HEK-293) via Calcium phosphate method (Cullen 1987). Stably transfected cells were selected with G-418 (600 ug/mL). Stably transfected cells served as the source for the membranes for the NPY5 receptor binding assay.
NPY5-transfected HEK293 cells were grown to confluence in 150 cm^2 culture dishes. Cells were washed once with phosphate-buffered saline (Gibco Cat#14040-133). Cells were then incubated in phosphate-buffered saline without Calcium and without Magnesium, supplemented with 2 mM EDTA. Cells were incubated for 10 minutes at room temperature and the cells were collected by repetitive pipeting. Cells were formed into pellets and then frozen at -80 until needed. Frozen pellets were homogenized with a polytron at full speed for 12 seconds in a homogenization buffer (20 mM Tris HCl, 5 mM EDTA, pH 7.4). Homogenates were centrifuged for 5 minutes at 4C at 200 g. Supernatants were transferred to corex tubes and centrifuged for 25 minutes at 28,000 g. Pellets were re-suspended in Binding (20 mM HEPES, 10 mM NaCl, 0.22 mM KH2 PO4, 1.3 mM CaCl2, 0.8 mM MgSO4, pH 7.4). Membranes were kept on ice until use.
A competition binding assay, known to those skilled in the art, was used in which aminotetralins (I) compete with ^125 I-PYY for binding to cell membranes. In simple terms, the less ^125 I-PYY bound to the membranes implies that a compound is a good inhibitor (competitor). Bound ^125 I-PYY is determined by centrifugation of membranes, aspirating supernatant, washing away residual ^125 I-PYY and subsequently counting the bound sample in a g-counter.
Compounds to be tested were prepared as 10× stocks in binding buffer and added first to assay tubes (RIA vials, Sarstedt). Twenty (20) μL of each 10× compound stock is pipeted into vials and 80 μL of ^125 I-PYY (NEN catalog number NEX240), which has been diluted to a concentration of 200 pM in 0.25% BSA in binding buffer, is added to the compound tubes (final concentration of ^125 I-PYY is 80 pM). To each tube is added 100 μL of membranes and the mixture is agitated by pipeting 2 times. Samples are incubated for 1 hr at room temperature. Aluminum cast plates (Sarstedt) containing the vials are then centrifuged 10 minutes at 3200 rpm in a Sorvall RT6000. Supernatant is then aspirated. To each vial 400 μL PBS is added and this is then aspirated again. Vials are then put in carrier polypropylene 12×75 tube and counted in gamma counter (Packard). Non-specific binding is determined in the presence of 300 nM NPY. Percent inhibition of ^125 I-PYY binding is calculated by subtracting non-specific binding from the test samples (compound (I)), taking these counts and dividing by total binding, and multiplying by 100. Inhibitory concentration values (IC50) of compounds that show appreciable inhibition of ^125 I-PYY binding are calculated by obtaining percent inhibition of ^125 I-PYY binding values at different concentrations of the test compound, and using a graphing program such as GraphPad Prism (San Diego, Calif.) to calculate the concentration of test compound that inhibits fifty-percent of ^125 I-PYY binding (Table 4). These operations are known to those skilled in the art.

Structure (SMILES)	inhibition at 3 µM [%]
COc1ccc2c(c1)CCC(NC[C@H]1CC[C@H](CNS(=O)(=O)c3ccccc3)CC1)C2Cc1c(F)cccc1F (relative stereo) [Compound 89]	98
COc1ccc2c(c1)CCC(NC[C@H]1CC[C@H](CNS(=O)(=O)c3ccccc3[N+](=O)[O-])CC1)C2Cc1c(F)cccc1F (relative stereo) [Compound 90]	97
COc1ccc2c(c1)CCC(NC[C@H]1CC[C@H](CNS(=O)(=O)c3ccccc3)CC1)C2Cc1ccccc1Cl (relative stereo) [Compound 95]	84
COc1ccc2c(c1)CCC(NC[C@H]1CC[C@H](CNS(=O)(=O)c3ccccc3)CC1)C2Cc1ccc(Cl)cc1 (relative stereo) [Compound 97]	90
O=S(=O)(NC[C@H]1CC[C@H](CNC2CCc3cc(F)ccc3C2Cc2ccccc2)CC1)c1ccccc1 (relative stereo) [Compound 103]	98
O=S(=O)(NC[C@H]1CC[C@H](CNC2CCc3c(Cl)cccc3C2Cc2ccccc2)CC1)c1ccccc1 (relative stereo) [Compound 105]	98
O=S(=O)(NC[C@H]1CC[C@H](CNC2CCc3cccc(Cl)c3C2Cc2ccccc2)CC1)c1ccccc1 (relative stereo) [Compound 106]	104
O=S(=O)(NC[C@H]1CC[C@H](CNC2CCc3cc(F)c(F)cc3C2Cc2ccccc2)CC1)c1ccccc1 (relative stereo) [Compound 107]	103
COc1cc2c(cc1OC)C(Cc1ccccc1)C(NC[C@H]1CC[C@H](CNS(=O)(=O)c3ccccc3)CC1)CC2 (relative stereo) [Compound 108]	99
O=S(=O)(NC[C@H]1CC[C@H](CNC2CCc3cc(O)c(O)cc3C2Cc2ccccc2)CC1)c1ccccc1 (relative stereo) [Compound 109]	101
O=S(=O)(NCCCCNC1CCc2ccccc2C1Cc1ccccc1)c1ccc2ccccc2c1 (centres unmarked) [Compound 45]	58
COc1ccc2c(c1)CCC(NCCCCCCCCNS(=O)(=O)c1ccc3ccccc3c1)C2Cc1ccccc1 (centres unmarked) [Compound 48]	68
COc1ccc2c(c1)CCC(NC1CCC(NS(=O)(=O)c3ccc4ccccc4c3)CC1)C2Cc1ccccc1 (centres unmarked) [Compound 50]	44
COc1ccc2c(c1)CCC(NC[C@H]1CC[C@H](CNS(=O)(=O)c3cccc(F)c3)CC1)C2Cc1ccccc1 (some centres unmarked) [Compound 60]	94
COc1ccc2c(c1)CCC(NC[C@H]1CC[C@H](CNS(=O)(=O)c3ccc(Cl)cc3Cl)CC1)C2Cc1ccccc1 (some centres unmarked) [Compound 61]	94
COc1ccc2c(c1)CCC(NC[C@H]1CC[C@H](CNS(=O)(=O)c3cccc([N+](=O)[O-])c3)CC1)C2Cc1ccccc1 (some centres unmarked) [Compound 62]	95
COc1ccc2c(c1)CCC(NC[C@H]1CC[C@H](CNS(=O)(=O)c3ccc([N+](=O)[O-])cc3)CC1)C2Cc1ccccc1 (some centres unmarked) [Compound 63]	93
O=[N+]([O-])c1ccccc1S(=O)(=O)NC[C@H]1CC[C@H](CNC2CCc3cc(Cl)ccc3C2Cc2ccccc2)CC1 (some centres unmarked) [Compound 64]	93
COc1ccc2c(c1)CCC(NC[C@H]1CC[C@H](CNS(=O)(=O)c3ccccc3C(F)(F)F)CC1)C2Cc1ccccc1 (some centres unmarked) [Compound 65]	0

Structure (SMILES)	inhibition at 3 µM [%]
COc1ccc2c(c1)CCC(NC[C@H]1CC[C@H](CNS(=O)(=O)c3ccccc3CN)CC1)C2Cc1ccccc1 (some centres unmarked) [Compound 67]	91
COc1ccc2c(c1)CCC(NC[C@H]1CC[C@H](CNS(=O)(=O)c3cccc(Br)c3)CC1)C2Cc1ccccc1 (some centres unmarked) [Compound 69]	93
COc1ccc2c(c1)CCC(NC[C@H]1CC[C@H](CNS(=O)(=O)c3ccc(Br)cc3)CC1)C2Cc1ccccc1 (some centres unmarked) [Compound 70]	95
O=S(=O)(NC[C@H]1CC[C@H](CNC2CCc3cc(O)ccc3C2Cc2ccccc2)CC1)c1ccccc1 (some centres unmarked) [Compound 71]	102
O=S(=O)(NC[C@H]1CC[C@H](CNC2CCc3cc(F)ccc3C2Cc2ccccc2)CC1)c1ccc(Cl)cc1Cl (some centres unmarked) [Compound 76]	99
O=S(=O)(NC[C@H]1CC[C@H](CNC2CCc3cc(F)ccc3C2Cc2ccccc2)CC1)c1c(Cl)cccc1Cl (some centres unmarked) [Compound 77]	102
O=S(=O)(NC[C@H]1CC[C@H](CNC2CCc3cc(F)ccc3C2Cc2ccccc2)CC1)c1ccc(Cl)c(Cl)c1 (some centres unmarked) [Compound 78]	92
COc1ccc2c(c1)C(Cc1ccccc1)C(NC[C@H]1CC[C@H](CNS(=O)(=O)c3ccccc3)CC1)CC2 (some centres unmarked) [Compound 79]	93
COc1cccc(CC2c3ccc(OC)cc3CCC2NC[C@H]2CC[C@H](CNS(=O)(=O)c3ccc4ccccc4c3)CC2)c1 (some centres unmarked) [Compound 84]	82
COc1ccc(CC2c3ccc(OC)cc3CCC2NC[C@H]2CC[C@H](CNS(=O)(=O)c3ccccc3)CC2)cc1 (some centres unmarked) [Compound 86]	25
COc1ccc2c(c1)CCC(NC[C@H]1CC[C@H](CNS(=O)(=O)c3ccccc3)CC1)C2Cc1ccc([N+](=O)[O-])cc1 (some centres unmarked) [Compound 87]	84
COc1ccc2c(c1)CCC(NC[C@H]1CC[C@H](CNS(=O)(=O)c3ccccc3[N+](=O)[O-])CC1)C2Cc1ccccc1OC (some centres unmarked) [Compound 91]	92
COc1ccc2c(c1)CCC(NC[C@H]1CC[C@H](CNS(=O)(=O)c3ccc4ccccc4c3)CC1)C2Cc1cccc(Cl)c1 (some centres unmarked) [Compound 93]	60
COc1ccc2c(c1)CCC(NC[C@H]1CC[C@H](CNS(=O)(=O)c3ccc4ccccc4c3)CC1)C2Cc1cccc(C(F)(F)F)c1 (some centres unmarked) [Compound 94]	45
COc1ccc2c(c1)CCC(NC[C@H]1CC[C@H](CNS(=O)(=O)c3ccccc3)CC1)C2Cc1ccccc1C(F)(F)F (some centres unmarked) [Compound 98]	30
COc1ccc2c(c1)CCC(NC[C@H]1CC[C@H](CNS(=O)(=O)c3ccccc3)CC1)C2Cc1cccc(C(F)(F)F)c1 (some centres unmarked) [Compound 99]	99
COc1ccc2c(c1)CCC(NC[C@H]1CC[C@H](CNS(=O)(=O)c3ccccc3)CC1)C2Cc1ccc(C(F)(F)F)cc1 (some centres unmarked) [Compound 100]	93
O=S(=O)(NC[C@H]1CC[C@H](CNC2CCc3ccc(Cl)cc3C2Cc2ccccc2)CC1)c1ccccc1 (some centres unmarked) [Compound 104]	97
O=S(=O)(NC1CCC(CNC2CCc3ccccc3C2Cc2cccnc2)CC1)c1ccccc1 (centres unmarked) [Compound 112]	95

From patent US6140354A, “N-substituted aminotetralins as ligands for the neuropeptide Y Y5 receptor useful in the treatment of obesity and other disorders” (Ortho-McNeil Pharmaceutical, Inc., priority 1999, dated 2000)
